System: MOLT-4 cells
Assay: Cell proliferation activity in MOLT-4 cells (72 h, cell viability luminescence)
Assay type: cell-based, human
Details: Homo sapiens, read-out: IC50 for the inhibition of MOLT-4 cell proliferation
Protocol: MOLT-4 cells are acute lymphoblastic leukemia cell lines in humans. The cells were purchased from ATCC. Culture conditions: RPMI-1640+10% FBS+1% penicillin-streptomycin solution. The cells were cultured in a 37° C., 5% CO2 incubator. The cells were plated in a 96-well plate, with 5×10^3 cells/well. After plating, compounds at different concentrations were added and cultured in a 37° C., 5% CO2 incubator for 72 h. After the completion of culture, a reagent (Promega, G7573) for detecting the cell viability was added. The mixture was uniformly mixed for 2 minutes and then incubated at room temperature for 10 minutes. The luminescence signal was detected with a multimode plate reader (BMG, PHERAstar FSX). The luminescence readings were processed using GraphPad Prism 8.0 software and the IC50 values of the compounds for the inhibition of cell proliferation and the maximum inhibition rate were calculated according to formula (2) and formula (3), respectively, wherein Tadministration denotes the cell signal readings obtained after incubation with the compounds for 72 h, and Tvehicle denotes the cell signal readings obtained after incubation with the vehicle control for 72 h.
Calculation of Max inhibition %: after the processing according to formula (2), the inhibition rate of the compounds at the highest concentration was calculated.

SMILES	IC50 [nM]
Cc1ncsc1-c1ccc([C@H](C)NC(=O)[C@@H]2C[C@@H](O)CN2C(=O)[C@@H](NC(=O)CCCCCCC(=O)N2C[C@H]3CN(CC[C@H](CSc4ccccc4)Nc4ccc(S(=O)(=O)NC(=O)c5ccc(N6CCN(CC7=C(c8ccc(Cl)cc8)CCC8(CC8)C7)CC6)cc5)cc4S(=O)(=O)C(F)(F)F)C[C@H]3C2)C(C)(C)C)cc1 [Compound 22, cis-(2S,4R)-1-((S)-2-(8-(5-((R)-3-((4-(N-(4-(4-((6-(4-chlorophenyl)spiro[2.5]oct-5-en-5-yl)methyl)piperazin-1-yl)benzoyl)sulfamoyl)-2-((trifluoromethyl)sulfonyl)phenyl)amino)-4-(phenylthio)butyl)hexahydropyrrolo[3,4-c]pyrrol-2(1H)-yl)-8-oxooctanamido)-3,3-dimethylbutanoyl)-4-hydroxy-N—((S)-1-(4-(4-methylthiazol-5-yl)phenyl)ethyl)pyrrolidine-2-carboxamide]	< 500
Cc1ncsc1-c1ccc([C@H](C)NC(=O)[C@@H]2C[C@@H](O)CN2C(=O)[C@@H](NC(=O)CCCCCCC(=O)N2C[C@@H]3C[C@H]2CN3CC[C@H](CSc2ccccc2)Nc2ccc(S(=O)(=O)NC(=O)c3ccc(N4CCN(CC5=C(c6ccc(Cl)cc6)CCC(C)(C)C5)CC4)cc3)cc2S(=O)(=O)C(F)(F)F)C(C)(C)C)cc1 [Compound 25, (2S,4R)-1-((S)-2-(8-((1S,4S)-5-((R)-3-((4-(N-(4-(4-((4′-chloro-4,4-dimethyl-3,4,5,6-tetrahydro-[1,1′-biphenyl]-2-yl)methyl)piperazin-1-yl)benzoyl)sulfamoyl)-2-((trifluoromethyl)sulfonyl)phenyl)amino)-4-(phenylthio)butyl)-2,5-diazabicyclo[2.2.1]heptan-2-yl)-8-oxooctanamido)-3,3-dimethylbutanoyl)-4-hydroxy-N—((S)-1-(4-(4-methylthiazol-5-yl)phenyl)ethyl)pyrrolidine-2-carboxamide]	< 500
Cc1ncsc1-c1ccc([C@H](C)NC(=O)[C@@H]2C[C@@H](O)CN2C(=O)[C@@H](NC(=O)CCCCCC(=O)N2C[C@]3(C)CN(CC[C@H](CSc4ccccc4)Nc4ccc(S(=O)(=O)NC(=O)c5ccc(N6CCN(CC7=C(c8ccc(Cl)cc8)CCC(C)(C)C7)CC6)cc5)cc4S(=O)(=O)C(F)(F)F)C[C@]3(C)C2)C(C)(C)C)cc1 [Compound 26, cis-(2S,4R)-1-((S)-2-(7-(5-((R)-3-((4-(N-(4-(4-((4′-chloro-4,4-dimethyl-3,4,5,6-tetrahydro-[1,1′-biphenyl]-2-yl)methyl)piperazin-1-yl)benzoyl)sulfamoyl)-2-((trifluoromethyl)sulfonyl)phenyl)amino)-4-(phenylthio)butyl)-3a,6a-dimethylhexahydropyrrolo[3,4-c]pyrrol-2(1H)-yl)-7-oxoheptanamido)-3,3-dimethylbutanoyl)-4-hydroxy-N—((S)-1-(4-(4-methylthiazol-5-yl)phenyl)ethyl)pyrrolidine-2-carboxamide]	< 500
Cc1ncsc1-c1ccc([C@H](C)NC(=O)[C@@H]2C[C@@H](O)CN2C(=O)[C@@H](NC(=O)CCCCCC(=O)N2C[C@@H]3C[C@H]2CN3CC[C@H](CSc2ccccc2)Nc2ccc(S(=O)(=O)NC(=O)c3ccc(N4CCN(CC5=C(c6ccc(Cl)cc6)CCC6(CC6)C5)CC4)cc3)cc2S(=O)(=O)C(F)(F)F)C(C)(C)C)cc1 [Compound 27, (2S,4R)-1-((S)-2-(7-((1S,4S)-5-((R)-3-((4-(N-(4-(4-((6-(4-chlorophenyl)spiro[2.5]oct-5-en-5-yl)methyl)piperazin-1-yl)benzoyl)sulfamoyl)-2-((trifluoromethyl)sulfonyl)phenyl)amino)-4-(phenylthio)butyl)-2,5-diazabicyclo[2.2.1]heptan-2-yl)-7-oxoheptanamido)-3,3-dimethylbutanoyl)-4-hydroxy-N—((S)-1-(4-(4-methylthiazol-5-yl)phenyl)ethyl)pyrrolidine-2-carboxamide]	< 500
Cc1ncsc1-c1ccc([C@H](C)NC(=O)[C@@H]2C[C@@H](O)CN2C(=O)[C@@H](NC(=O)CCCCCCC(=O)N2C[C@@H]3C[C@H]2CN3CC[C@H](CSc2ccccc2)Nc2ccc(S(=O)(=O)NC(=O)c3ccc(N4CCN(CC5=C(c6ccc(Cl)cc6)CCC6(CC6)C5)CC4)cc3)cc2S(=O)(=O)C(F)(F)F)C(C)(C)C)cc1 [Compound 28, (2S,4R)-1-((S)-2-(8-((1S,4S)-5-((R)-3-((4-(N-(4-(4-((6-(4-chlorophenyl)spiro[2.5]oct-5-en-5-yl)methyl)piperazin-1-yl)benzoyl)sulfamoyl)-2-((trifluoromethyl)sulfonyl)phenyl)amino)-4-(phenylthio)butyl)-2,5-diazabicyclo[2.2.1]heptan-2-yl)-8-oxooctanamido)-3,3-dimethylbutanoyl)-4-hydroxy-N—((S)-1-(4-(4-methylthiazol-5-yl)phenyl)ethyl)pyrrolidine-2-carboxamide]	< 500

The next lines start with the values.

IC50 [nM]	SMILES
< 500	Cc1ncsc1-c1ccc([C@H](C)NC(=O)[C@@H]2C[C@@H](O)CN2C(=O)[C@@H](NC(=O)CCCCCC(=O)N2C[C@@H]3C[C@H]2CN3CC[C@H](CSc2ccccc2)Nc2ccc(S(=O)(=O)NC(=O)c3ccc(N4CCN(CC5=C(c6ccc(Cl)cc6F)CCC(C)(C)C5)CC4)cc3)cc2S(=O)(=O)C(F)(F)F)C(C)(C)C)cc1 [Compound 20, (2S,4R)-1-((S)-2-(7-((1S,4S)-5-((R)-3-((4-(N-(4-(4-((4′-chloro-2′-fluoro-4,4-dimethyl-3,4,5,6-tetrahydro-[1,1′-biphenyl]-2-yl)methyl)piperazin-1-yl)benzoyl)sulfamoyl)-2-((trifluoromethyl)sulfonyl)phenyl)amino)-4-(phenylthio)butyl)-2,5-diazabicyclo[2.2.1]heptan-2-yl)-7-oxoheptanamido)-3,3-dimethylbutanoyl)-4-hydroxy-N—((S)-1-(4-(4-methylthiazol-5-yl)phenyl)ethyl)pyrrolidine-2-carboxamide]
< 500	Cc1ncsc1-c1ccc([C@H](C)NC(=O)[C@@H]2C[C@@H](O)CN2C(=O)[C@@H](NC(=O)CCCCCCC(=O)N2C[C@H]3CN(CC[C@H](CSc4ccccc4)Nc4ccc(S(=O)(=O)NC(=O)c5ccc(N6CCN(CC7=C(c8ccc(Cl)cc8F)CCC8(CC8)C7)CC6)cc5)cc4S(=O)(=O)C(F)(F)F)C[C@H]3C2)C(C)(C)C)cc1 [Compound 23, cis-(2S,4R)-1-((S)-2-(8-(5-((R)-3-((4-(N-(4-(4-((6-(4-chloro-2-fluorophenyl)spiro[2.5]oct-5-en-5-yl)methyl)piperazin-1-yl)benzoyl)sulfamoyl)-2-((trifluoromethyl)sulfonyl)phenyl)amino)-4-(phenylthio)butyl)hexahydropyrrolo[3,4-c]pyrrol-2(1H)-yl)-8-oxooctanamido)-3,3-dimethylbutanoyl)-4-hydroxy-N—((S)-1-(4-(4-methylthiazol-5-yl)phenyl)ethyl)pyrrolidine-2-carboxamide]
< 500	Cc1ncsc1-c1ccc([C@H](C)NC(=O)[C@@H]2C[C@@H](O)CN2C(=O)[C@@H](NC(=O)CCCCCCC(=O)N2CCN(CC[C@H](CSc3ccccc3)Nc3ccc(S(=O)(=O)NC(=O)c4ccc(N5CCN(CC6=C(c7ccc(Cl)cc7F)CCC(C)(C)C6)CC5)cc4)cc3S(=O)(=O)C(F)(F)F)CC2)C(C)(C)C)cc1 [Compound 24, (2S,4R)-1-((S)-2-(8-(4-((R)-3-((4-(N-(4-(4-((4′-chloro-2′-fluoro-4,4-dimethyl-3,4,5,6-tetrahydro-[1,1′-biphenyl]-2-yl)methyl)piperazin-1-yl)benzoyl)sulfamoyl)-2-((trifluoromethyl)sulfonyl)phenyl)amino)-4-(phenylthio)butyl)piperazin-1-yl)-8-oxooctanamido)-3,3-dimethylbutanoyl)-4-hydroxy-N—((S)-1-(4-(4-methylthiazol-5-yl)phenyl)ethyl)pyrrolidine-2-carboxamide]
< 500	Cc1ncsc1-c1ccc([C@H](C)NC(=O)[C@@H]2C[C@@H](O)CN2C(=O)[C@@H](NC(=O)CCCCCC(=O)N2C[C@@H]3C[C@H]2CN3CC[C@H](CSc2ccccc2)Nc2ccc(S(=O)(=O)NC(=O)c3ccc(N4CCN(CC5=C(c6ccc(Cl)cc6F)CCC6(CC6)C5)CC4)cc3)cc2S(=O)(=O)C(F)(F)F)C(C)(C)C)cc1 [Compound 29, (2S,4R)-1-((S)-2-(7-((1S,4S)-5-((R)-3-((4-(N-(4-(4-((6-(4-chloro-2-fluorophenyl)spiro[2.5]oct-5-en-5-yl)methyl)piperazin-1-yl)benzoyl)sulfamoyl)-2-((trifluoromethyl)sulfonyl)phenyl)amino)-4-(phenylthio)butyl)-2,5-diazabicyclo[2.2.1]heptan-2-yl)-7-oxoheptanamido)-3,3-dimethylbutanoyl)-4-hydroxy-N—((S)-1-(4-(4-methylthiazol-5-yl)phenyl)ethyl)pyrrolidine-2-carboxamide]
< 500	Cc1ncsc1-c1ccc([C@H](C)NC(=O)[C@@H]2C[C@@H](O)CN2C(=O)[C@@H](NC(=O)CCCCCCC(=O)N2C[C@@H]3C[C@H]2CN3CC[C@H](CSc2ccccc2)Nc2ccc(S(=O)(=O)NC(=O)c3ccc(N4CCN(CC5=C(c6ccc(Cl)cc6F)CCC6(CC6)C5)CC4)cc3)cc2S(=O)(=O)C(F)(F)F)C(C)(C)C)cc1 [Compound 30, (2S,4R)-1-((S)-2-(8-((1S,4S)-5-((R)-3-((4-(N-(4-(4-((6-(4-chloro-2-fluorophenyl)spiro[2.5]oct-5-en-5-yl)methyl)piperazin-1-yl)benzoyl)sulfamoyl)-2-((trifluoromethyl)sulfonyl)phenyl)amino)-4-(phenylthio)butyl)-2,5-diazabicyclo[2.2.1]heptan-2-yl)-8-oxooctanamido)-3,3-dimethylbutanoyl)-4-hydroxy-N—((S)-1-(4-(4-methylthiazol-5-yl)phenyl)ethyl)pyrrolidine-2-carboxamide]

Reference: patent US20240408085A1, “COMPOUND FOR DEGRADATION OF BCL-2 FAMILY PROTEINS AND MEDICAL APPLICATION THEREOF” (XIZANG HAISCO PHARMACEUTICAL CO., LTD., priority 2021, published 2024)
